Reference: paper PMC12518639, “Apomorphine is a novel necroptosis inhibitor targeting mixed lineage kinase domain-like protein oligomerization” (Cell Death Discovery, 2025)

Key:
Wt-hMLKL = target: T1, Wt-hMLKL (Homo sapiens, UniProt Q8NB16); test: SPR binding to Wt-hMLKL; conditions: for Kd: SPR, CM5 chip, 25 °C
T1 construct: purchased Abcam ab241453
T1 sequence (Q8NB16 1-471): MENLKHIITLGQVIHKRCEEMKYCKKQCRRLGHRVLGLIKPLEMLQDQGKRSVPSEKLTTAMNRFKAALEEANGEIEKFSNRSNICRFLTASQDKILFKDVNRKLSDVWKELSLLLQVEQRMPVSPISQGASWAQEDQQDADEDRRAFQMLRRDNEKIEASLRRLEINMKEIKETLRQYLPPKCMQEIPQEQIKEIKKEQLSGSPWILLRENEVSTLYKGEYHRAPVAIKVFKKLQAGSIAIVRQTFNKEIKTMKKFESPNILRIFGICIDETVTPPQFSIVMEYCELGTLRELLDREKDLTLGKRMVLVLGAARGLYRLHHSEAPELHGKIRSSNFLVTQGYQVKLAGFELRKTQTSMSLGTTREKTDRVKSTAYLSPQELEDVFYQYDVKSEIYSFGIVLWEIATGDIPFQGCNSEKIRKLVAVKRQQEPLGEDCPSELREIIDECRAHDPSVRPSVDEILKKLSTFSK
Source text: The hMLKL plasmid (RC213152, OriGene, Rockville, MD, USA), and recombinant Wt-hMLKL (ab241453, Abcam) and Wt-mMLKL (MBS1379843, MyBioSource, San Diego, CA, USA) proteins were purchased. Nt-hMLKL (2–154), Nt-mMLKL (1–180), and Ct-hMLKL (183–471) were generated using the pBT7-N-His vector. Nt-hMLKL^C86A, Nt-hMLKL^F148A, -hMLKL^C86A/L89A/D94A, and Nt-hMLKL^R145A/R146A/F148A/M150A were generated using the Site-directed Mutagenesis Kit (EZ004S, Enzynomics, S. Korea). These constructs were subcloned into pBT7-N-His and pET-15b plasmid vectors. E. coli BL21 cells transformed with the cloned expression vectors were cultured in LB medium and supplemented with 100 μg/mL ampicillin until an OD at 600 nm of 0.5–0.6 was reached. The cultures were induced by 1 mM IPTG (367-93-1, Sigma-Aldrich). The cells were lysed and centrifuged. The clear supernatants were subjected to Ni-NTA affinity chromatography (175018169, QIAGEN, Hilden, Germany). Plasmids encoding mMLKL (1–464)–gyrase fusion constructs were kindly provided by Prof. James Murphy (Cell Signalling and Cell Death Division, The Walter and Eliza Hall Institute of Medical Research, Parkville, Victoria 3052, Australia).
The interactions of Wt-hMLKL, Wt-mMLKL, Nt-mMLKL, Nt, and Ct-hMLKL proteins with Re-APO or Ox-APO were detected through SPR analysis using Biacore™ T200 (Cytiva, Marlborough, MA, USA). Each MLKL protein was immobilized on a CM5 sensor chip. To derive the Rligand values, coupling processes were performed based on the molecular weights of the MLKL protein (MW ligand) and Re-APO or Ox-APO (MW analyte). Re-APO or Ox-APO was injected into an HBS buffer (10 mM HEPES, 150 mM NaCl, 3.4 mM EDTA, and 0.005% Tween 20, pH 7.4) at 25 °C (10 μL/min flow rate). Sensorgrams were recorded and analyzed in real-time using the control software in the BIAcore T200 system. All data were analyzed using the BIA evaluation software (Cytiva).

p-MLKL oligomer = test: MLKL oligomerization Western blot (non-reducing/reducing) in THP-1 cells; type: cell-based, human; conditions: THP-1, TBZ, 8 h; for tetramerization and octamerization of p-MLKL: non-reducing conditions; for phosphorylation levels of RIP1, RIP3 and MLKL: reducing conditions
Experimental: Fig. 2 Effect of redox-sensitive APO on MLKL oligomerization. A Chemical structure of APO. APO undergoes auto-oxidation to form the oxidized form (Ox-APO), while the addition of DTT preserves the reduced form (Re-APO). The red highlights indicate the sites where APO loses hydrogen and electrons during the oxidation process. B Real-time 1D ^1H NMR spectra showing the degree of oxidation of APO. APO was dissolved from its powdered form in DPBS and incubated at 25 °C for 36 h. Real-time 1D ^1H NMR spectra were measured at a 2 h intervals after filtration through a 0.2 μm syringe filter to remove precipitates. […] C MLKL oligomerization is inhibited by APO. THP-1 cells were treated with TBZ and Re-APO or Ox-APO for 8 h. Western blot analysis of WCLs was performed under non-reducing and reducing conditions using the indicated antibodies. Percentage changes of p-MLKL oligomer band relative to GAPDH were shown. The p value for MLKL oligomer band intensity was calculated based on the average intensity of the tetramer and octamer bands. Octa octamer, Tetra tetramer, Mono monomer. Mean ± SEM (n = 3). **p < 0.001, ns not significant, one-way ANOVA. D THP-1 cells were treated with TBZ and Ox-APO or Re-APO for 8 h and then stained with DAPI and MLKL for confocal microscopy. In the intensity graph, green indicates MLKL. The signal intensity of MLKL fluorescence from the plasma membrane to the cytosol was measured using FluoView FV1000 software. Mean ± SEM (n > 100). **p < 0.01, ***p < 0.001, one-way ANOVA. E J774A.1 mouse monocytic cells were treated with TBZ and 20 μM Re-APO or Ox-APO for 8 h. Western blot analysis of WCLs was performed under non-reducing and reducing conditions using the indicated antibodies.
The cells were harvested and lysed in 1× RIPA buffer (R4100-010, GenDEPOT, Katy, TX, USA) containing protease (P3100-001, GenDEPOT) and phosphatase (1862495, Thermo Fisher Scientific) inhibitors. WCLs were then centrifuged at 20,000×g for 30 min at 4 °C and subjected to non-reducing or reducing 8–12% SDS-PAGE gel electrophoresis. The membrane was blocked with 5% non-fat milk in TBS and probed with antibodies. Antibodies to hMLKL (14993S), mMLKL (97705S), phospho-hMLKL (Ser358) (91689S), phospho-mMLKL (Ser345) (37333S), phospho-hRIP1 (Ser166) (65746S), mRIP1 (3493S), phospho-mRIP1 (Ser321) (38662S), phospho-hRIP3 (Ser227) (93654), mRIP3 (95702S), p-mRIP3 (Thr231/Ser232) (91702S), and LDH (2012S) (Cell Signaling Technology, Danvers, MA, USA), and GAPDH (LF-PA0018, Abfrontier, S. Korea), hRIP1 (ab72139, Abcam, Cambridge, UK), hRIP3 (sc-135170, Santa Cruz Biotechnology, Dallas, TX, USA), HMGB1 (ab78923, Abcam), and LAMP1 (ab24170, Abcam) antibodies were used.

SMILES	Kd (Wt-hMLKL) [nM]	fold stronger binding than Re-APO (Wt-hMLKL; from KD values)	tetramerization and octamerization of p-MLKL (p-MLKL oligomer)	phosphorylation levels of RIP1, RIP3 and MLKL (p-MLKL oligomer)
CN1CCc2cccc3c4c(cc1c23)C=CC(=O)C4=O [Ox-APO]	5	~ 50 fold	strongly inhibited	little effect
CN1CCc2cccc3c2C1Cc1ccc(O)c(O)c1-3 (stereo not shown) [Re-APO]	244	–	less effective than Ox-APO	little effect
